In patent publication US20250263426A1, “PDE4B INHIBITOR AND USE THEREOF” (Xizang Haisco Pharmaceutical Co., Ltd., priority 2022, published 2025):
Like-named read-outs stand apart in the source and are kept apart here.

How the values were obtained:
[1] = biological target: PDE4D2 (Homo sapiens (Human), UniProt Q08499); experiment: Effect of compounds on PDE4D2 activity (fluorescence polarization kit); type: biochemical
Method: FP was usually represented by mP value.
[formula] • I∥ (S520): fluorescence intensity in parallel direction • I⊥ (P520): fluorescence intensity in perpendicular direction • G: G factor=1
[formula] • mP(sample): mP of the test compound in a reaction well • mP(negative control): mP in the negative control well • mP(positive control): mP in the positive control well
According to the calculated inhibition rate at each concentration, the IC50 value of each compound was calculated by GraphPad Prism 8 software.

[2] = biological target: PDE4B2 (Homo sapiens (Human), UniProt Q07343); experiment: Effect of compounds on PDE4B2 activity (fluorescence polarization kit)
From the text: [formula] • I∥ (S535): fluorescence intensity in parallel direction • I⊥ (P535): fluorescence intensity in perpendicular direction • G: G factor=1

[3] = tested on: human peripheral blood mononuclear cells (TNF-α release); experiment: Inhibition of LPS-induced TNF-α release from human peripheral blood mononuclear cells in vitro; type: cell-based; details: 4 h; for IC50: read-out: Re IC50
Method: 5. Detection of Inhibitory Activity of Compounds on the Release of Tumor Necrosis Factor-α (TNF-α) from Human Peripheral Blood Mononuclear Cells Induced by Lipopolysaccharide (LPS) In Vitro
The concentration of hPBMC cells was adjusted to 0.25×10^6 cells/mL with RPMI1640 medium and inoculated into a 96-well plate in an amount of 50000 cells per well. […] Incubation was carried out for 4 h in an incubator at 37° C. and 5% CO2. The cell supernatant was collected, and the content of TNF-α in the supernatant sample was detected by human TNF-α Elisa quantitative test kit (Sino Biological, Cat #KIT10602). The IC50 value was calculated using GraphPad Prism software.

[4] = relative IC50, hPBMC, 100 ng/mL LPS

Sequence of PDE4D2 (Q08499 303-809, change not shown): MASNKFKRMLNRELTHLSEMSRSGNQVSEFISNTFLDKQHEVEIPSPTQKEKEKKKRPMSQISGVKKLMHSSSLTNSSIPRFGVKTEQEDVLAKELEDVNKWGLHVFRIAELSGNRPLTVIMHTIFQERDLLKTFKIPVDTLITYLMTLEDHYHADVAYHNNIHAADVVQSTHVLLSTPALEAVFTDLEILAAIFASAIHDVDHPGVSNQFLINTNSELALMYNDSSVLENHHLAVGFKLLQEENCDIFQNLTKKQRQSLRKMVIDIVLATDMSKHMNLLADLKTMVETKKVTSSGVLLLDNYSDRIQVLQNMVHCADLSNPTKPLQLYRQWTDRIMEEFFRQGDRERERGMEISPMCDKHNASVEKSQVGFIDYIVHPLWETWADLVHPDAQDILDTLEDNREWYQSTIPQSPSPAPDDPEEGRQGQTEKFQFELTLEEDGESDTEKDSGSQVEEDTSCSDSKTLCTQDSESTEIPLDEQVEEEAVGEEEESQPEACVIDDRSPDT
Sequence of PDE4B2 (Q07343 other isoform, or with tags, fused parts or gaps): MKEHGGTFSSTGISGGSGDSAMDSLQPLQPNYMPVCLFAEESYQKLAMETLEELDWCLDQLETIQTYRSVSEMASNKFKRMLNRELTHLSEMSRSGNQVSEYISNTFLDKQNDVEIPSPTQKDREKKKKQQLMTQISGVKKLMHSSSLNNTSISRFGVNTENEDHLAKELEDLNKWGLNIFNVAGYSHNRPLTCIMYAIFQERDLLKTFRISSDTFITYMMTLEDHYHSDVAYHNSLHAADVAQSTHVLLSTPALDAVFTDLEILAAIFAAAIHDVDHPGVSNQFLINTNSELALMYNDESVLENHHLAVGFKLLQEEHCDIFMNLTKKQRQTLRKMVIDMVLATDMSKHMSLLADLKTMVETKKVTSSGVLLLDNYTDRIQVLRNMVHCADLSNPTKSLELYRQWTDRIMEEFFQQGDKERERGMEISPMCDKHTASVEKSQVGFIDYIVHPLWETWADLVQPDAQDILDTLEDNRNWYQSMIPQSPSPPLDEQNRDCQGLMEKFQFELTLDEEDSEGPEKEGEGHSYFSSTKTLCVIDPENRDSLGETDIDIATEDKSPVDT

IC50 [1] [nM] | IC50 [2] [nM] | SMILES | IC50 ([2]; read-out: PDE4B2 IC50) [nM] | other results
10 to 50 | 10 to 50 | CC(C)(COC(N)=O)Nc1nc(N2CC=C(c3ncc(C(F)F)cn3)CC2)nc2c1[S@+]([O-])CC2 [Compound 130] |  | 
10 to 50 | < 10 | CC(C)c1cnc(C2=CCN(c3nc4c(c(NC(C)(C)COC(N)=O)n3)[S@+]([O-])CC4)CC2)nc1 [Compound 129] |  | 
 | 50 to 100 | NC(=O)OCC1(Nc2nc(N3CCC(c4ncc(Cl)cn4)CC3)nc3c2[S@+]([O-])CC3)CCC1 [Compound 55] |  | 
50 to 100 |  | CC(C)(COC(N)=O)Nc1nc(N2CCN3c4ncc(C5CC5)cc4OC[C@H]3C2)nc2c1[S@+]([O-])CC2 [Compound 113-2] | 10 to 50 | 
 |  | C#Cc1cnc(C2=CCN(c3nc4c(c(NC5(c6ncc[nH]6)CCC5)n3)[S@+]([O-])CC4)CC2)nc1 [Compound 37] |  | IC50 ([3]; Homo sapiens, PBMC): 10 to 50 nM; Emax ([3]; Homo sapiens, PBMC, hPBMC, 100 ng/mL LPS, read-out: Max inhibition (%)): 78.3%
10 to 50 |  | [O-][S@+]1CCCc2nc(N3C[C@H]4CN(c5ccc(Cl)cc5)C[C@H]4C3)nc(NC3(CO)CCC3)c21 [Compound 15-2] | < 10 | 
10 to 50 |  | [O-][S@@+]1CCCc2nc(N3CCC=C(c4ncc(Cl)cn4)CC3)nc(NC3(CO)CCC3)c21 [Compound 17-2] | < 10 | 
< 10 | < 10 | CC(C)(COC(N)=O)Nc1nc(N2CC=C(c3ncc4occc4n3)CC2)nc2c1[S@+]([O-])CC2 [Compound 136] |  | 
10 to 50 | 10 to 50 | COc1cnc(C2=CCN(c3nc4c(c(NC(C)(C)COC(N)=O)n3)[S@+]([O-])CC4)CC2)nc1 [Compound 124] |  | 
10 to 50 | 10 to 50 | CC(C)(CO)Nc1nc(N2CC=C(c3ncc(Cl)cn3)CC2)nc2c1[S+]([O-])CC2 (stereo not drawn) [Compound 31] |  | 
50 to 100 |  | CCOc1cnc2c(c1)OC[C@H]1CN(c3nc4c(c(NC(C)(C)CNC(=O)OC)n3)[S@+]([O-])CC4)CCN21 [Compound 147-2] | 10 to 50 | 
10 to 50 |  | [O-][S@@+]1CCCc2nc(N3CCN(c4ncc(Cl)cn4)CC3)nc(NC3(CO)CCC3)c21 [Compound 12-2] | < 10 | 
10 to 50 |  | [O-][S@+]1CCc2nc(N3CC4CN(c5ccc6c(c5)CC6)CC4C3)nc(Nc3cccc(S(F)(F)(F)(F)F)c3)c21 (stereo partly drawn) [Compound 75-1] | 10 to 50 | 
 | 50 to 100 | O=S1(=O)CCCc2nc(N3CC=C(c4ncc(Cl)cn4)CC3)nc(NC3(CO)CCC3)c21 [Compound 54] |  | 
50 to 100 | 10 to 50 | CC(C)(COC(N)=O)Nc1nc(N2CC=C(c3ncc(C4CC4)cn3)C2)nc2c1[S@+]([O-])CC2 [Compound 116] |  | 
< 10 | < 10 | CCOc1cnc(C2=CCN(c3nc4c(c(NC(C)(C)COC(N)=O)n3)[S@+]([O-])CC4)CC2)nc1 [Compound 128] |  | 
< 10 | < 10 | [O-][S@+]1CCc2nc(N3CC=C(c4ncc(Cl)cn4)CC3)nc(NC3(CO)CCCC3)c21 [Compound 30] |  | 

IC50 [1] [nM] | IC50 [2] [nM] | SMILES | IC50 ([2]; read-out: PDE4B2 IC50) [nM] | other results
10 to 50 |  | COC(=O)NCC(C)(C)Nc1nc(N2CCN3c4ncc(C)cc4OC[C@H]3C2)nc2c1[S@+]([O-])CC2 [Compound 141-1] | 10 to 50 | 
 |  | CC(C)(COC(N)=O)Nc1nc(N2CCC=C(c3ncc(Cl)cn3)CC2)nc2c1[S@@+]([O-])CC2 [Compound 102-2] |  | Max inhibition (%) ([3]; hPBMC, 100 ng/mL LPS): 87.54%; IC50 [3, 4]: < 10 nM
50 to 100 |  | COC(=O)NCC(C)(C)Nc1nc(N2CCN3c4ncc(C)cc4OC[C@@H]3C2)nc2c1[S@+]([O-])CC2 [Compound 141-2] | 10 to 50 | 
10 to 50 | 10 to 50 | CC(C)(COC(N)=O)Nc1nc(N2CCC=C(c3ncc(C4CC4)cn3)CC2)nc2c1[S@+]([O-])CC2 [Compound 137] |  | 
10 to 50 | 10 to 50 | CC(C)(COC(N)=O)Nc1nc(N2CC=C(c3ncc4c(n3)CCC4)CC2)nc2c1[S@+]([O-])CC2 [Compound 125] |  | 
10 to 50 |  | [O-][S@@+]1CCCc2nc(N3C[C@H]4CN(c5ccc6c(c5)CC6)C[C@H]4C3)nc(NC3(CO)CCC3)c21 [Compound 13-2] | < 10 | 
 |  | CC#Cc1cnc(C2=CCN(c3nc4c(c(NC(C)(C)COC(N)=O)n3)[S+]([O-])CC4)CC2)nc1 (single isomer, unassigned) [Compound 110-1] |  | Max inhibition (%) ([3]; hPBMC, 100 ng/mL LPS): 88.09%; IC50 [3, 4]: < 10 nM
10 to 50 |  | O=C1CCCc2nc(N3CC4=C(CN(c5ncc(Cl)cn5)C4)C3)nc(NC3(CO)CCC3)c21 [Compound 19-1] | < 10 | 
10 to 50 | 10 to 50 | CC(C)(COC(N)=O)Nc1nc(N2CC=C(c3ncc4c(n3)CC4)CC2)nc2c1[S@+]([O-])CC2 [Compound 132] |  | 
50 to 100 |  | CCOc1cnc2c(c1)OC[C@@H]1CN(c3nc4c(c(NC(C)(C)CNC(=O)OC)n3)[S@+]([O-])CC4)CCN21 [Compound 147-1] | 10 to 50 | 
10 to 50 | 10 to 50 | CC(C)(COC(N)=O)Nc1nc(N2CC=C(c3ncccn3)CC2)nc2c1[S@+]([O-])CC2 [Compound 118] |  | 
 |  | CC(C)(COC(N)=O)Nc1nc(N2CCC=C(c3ncc(Cl)cn3)CC2)nc2c1[S@+]([O-])CC2 [Compound 102-1] |  | Max inhibition (%) ([3]; hPBMC, 100 ng/mL LPS): 99.73%; IC50 [3, 4]: 10 to 50 nM
10 to 50 | < 10 | C#Cc1cnc(N2CCN(c3nc4c(c(NC5(COC(N)=O)CCC5)n3)[S@+]([O-])CC4)CC2)nc1 [Compound 57] |  | 
10 to 50 |  | [O-][S@@+]1CCCc2nc(N3CCC=C(c4ccc(Cl)cc4)CC3)nc(NC3(CO)CCC3)c21 [Compound 16-2] | 10 to 50 | 
10 to 50 | 10 to 50 | Cc1cnc(C2=CCN(c3nc4c(c(NC(C)(C)COC(N)=O)n3)[S@+]([O-])CC4)CC2)nc1 [Compound 122] |  | 
 |  | CC#Cc1cnc(C2=CCN(c3nc4c(c(NC(C)(C)COC(N)=O)n3)[S+]([O-])CC4)CC2)nc1 (single isomer, unassigned) [Compound 110-2] |  | Max inhibition (%) ([3]; hPBMC, 100 ng/mL LPS): 74.07%; IC50 [3, 4]: < 10 nM

SMILES | IC50 [1] [nM] | IC50 [2] [nM] | IC50 ([2]; read-out: PDE4B2 IC50) [nM] | other results
CN1C[C@@H](Nc2nc(N3C[C@H]4CN(c5ccc6c(c5)CC6)C[C@H]4C3)nc3c2[S@+]([O-])CC3)CCC1=O [Compound 109-2] | 50 to 100 |  | 10 to 50 | 
Cc1cnc2c(c1)OC[C@@H]1CN(c3nc4c(c(NC(C)(C)COC(N)=O)n3)[S@+]([O-])CC4)CCN21 [Compound 142-1] | 10 to 50 |  | < 10 | 
CC(C)(COC(N)=O)Nc1nc(N2CC=C(c3ccc4c(c3)C[Si](C)(C)C4)CC2)nc2c1[S@+]([O-])CC2 [Compound 108] | 10 to 50 | 10 to 50 |  | 
C#Cc1ccc(C2=CCN(c3nc4c(c(NC5([C@@H](C)O)CCC5)n3)[S@+]([O-])CC4)CC2)nc1 [Compound 95-1] | < 10 |  | < 10 | 
Cc1cnc2c(c1)OC[C@H]1CN(c3nc4c(c(NC(C)(C)COC(N)=O)n3)[S@+]([O-])CC4)CCN21 [Compound 142-2] | 10 to 50 |  | 10 to 50 | 
C#Cc1ccc(C2=CCN(c3nc4c(c(NC5([C@H](C)O)CCC5)n3)[S@@+]([O-])CC4)CC2)nc1 [Compound 95-4] | < 10 |  | < 10 | 
C#Cc1cnc(C2=CCN(c3nc4c(c(Nc5cccc(F)c5)n3)[S@@+]([O-])CC4)CC2)nc1 [Compound 36-2] | 10 to 50 |  | 10 to 50 | 
CC(C)(CO)Nc1nc(N2CC=C(c3ccc4c(c3)C[Si](C)(C)C4)CC2)nc2c1[S@+]([O-])CC2 [Compound 107] | 10 to 50 |  | 10 to 50 | 
CC#Cc1cnc(C2=CCN(c3nc4c(c(NC5(COC(F)F)CCC5)n3)[S@@+]([O-])CC4)CC2)nc1 [Compound 92-2] | 10 to 50 |  |  | 
C#Cc1cnc(C2=CCN(c3nc4c(c(NC5([C@@H](C)O)CCC5)n3)[S@@+]([O-])CC4)CC2)nc1 [Compound 96-3] | 10 to 50 |  | < 10 | 
CCOc1cnc2c(c1)OC[C@@H]1CN(c3nc4c(c(NC(C)(C)COC(N)=O)n3)[S+]([O-])CC4)CCN21 (stereo partly drawn) [Compound 146-1] | < 10 |  | 10 to 50 | 
CCOc1cnc2c(c1)OC[C@H]1CN(c3nc4c(c(NC(C)(C)COC(N)=O)n3)[S+]([O-])CC4)CCN21 (stereo partly drawn) [Compound 146-2] | 10 to 50 |  | 10 to 50 | 
NC(=O)OCC1(Nc2nc(N3CC=C(c4ncc(C5CC5)cn4)CC3)nc3c2[S@+]([O-])CC3)CCC1 [Compound 47] | < 10 |  |  | Max inhibition (%) ([3]; hPBMC, 100 ng/mL LPS): 80.45%; IC50 [3, 4]: < 10 nM
CC#Cc1cnc(C2=CCN(c3nc4c(c(NC5(COC(F)F)CCC5)n3)[S@+]([O-])CC4)CC2)nc1 [Compound 92-1] | < 10 |  |  | Max inhibition (%) ([3]; hPBMC, 100 ng/mL LPS): 69.72%; IC50 [3, 4]: < 10 nM
COC(=O)NCC(C)(C)Nc1nc(N2C[C@H]3CC(c4ncc5c(n4)CC5)=C[C@H]3C2)nc2c1[S@+]([O-])CC2 [Compound 139-2] | 10 to 50 |  | 10 to 50 | 
CC(C)(CC#N)Nc1nc(N2CC=C(c3ncc(C4CC4)cn3)CC2)nc2c1[S@+]([O-])CC2 [Compound 134] | < 10 |  | < 10 | 
CC#Cc1cnc2c(c1)OC[C@H]1CN(c3nc4c(c(NC(C)(C)COC(N)=O)n3)[S@+]([O-])CC4)CCN21 [Compound 112-2] | 50 to 100 |  | 10 to 50 | 
